Laboratory results from PubChem BioAssay (NCI).
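Compound exposure: 48 hours, 5 concentrations, 96-well plates. TGI marks complete inhibition of growth.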

How the values were obtained:
Experiment in all cases: growth of human tumour cells (NCI), 48 h
786-0 renal = system: 786-0 renal
A498 renal = system: A498 renal
A549 NSCLC = system: A549 NSCLC
ACHN renal = system: ACHN renal
CAKI-1 renal = system: CAKI-1 renal
CCRF-CEM leukemia = system: CCRF-CEM leukemia
COLO 205 colon = system: COLO 205 colon
DLD-1 colon = system: DLD-1 colon
DMS 114 small cell lung = system: DMS 114 small cell lung
DMS 273 small cell lung = system: DMS 273 small cell lung
EKVX NSCLC = system: EKVX NSCLC
HCC-2998 colon = system: HCC-2998 colon
HCT-116 colon = system: HCT-116 colon
HCT-15 colon = system: HCT-15 colon
HL-60(TB) leukemia = system: HL-60(TB) leukemia
HOP-18 NSCLC = system: HOP-18 NSCLC
HOP-62 NSCLC = system: HOP-62 NSCLC
HOP-92 NSCLC = system: HOP-92 NSCLC
HT29 colon = system: HT29 colon
IGROV1 ovarian = system: IGROV1 ovarian
K-562 leukemia = system: K-562 leukemia
KM12 colon = system: KM12 colon
KM20L2 colon = system: KM20L2 colon
LOX IMVI melanoma = system: LOX IMVI melanoma
LXFL 529 NSCLC = system: LXFL 529 NSCLC
M14 melanoma = system: M14 melanoma
M19-MEL melanoma = system: M19-MEL melanoma
MALME-3M melanoma = system: MALME-3M melanoma
MOLT-4 leukemia = system: MOLT-4 leukemia
NCI-H226 lung = system: NCI-H226 lung
NCI-H23 lung = system: NCI-H23 lung
NCI-H460 lung = system: NCI-H460 lung
NCI-H522 lung = system: NCI-H522 lung
OVCAR-3 ovarian = system: OVCAR-3 ovarian
OVCAR-4 ovarian = system: OVCAR-4 ovarian
OVCAR-8 ovarian = system: OVCAR-8 ovarian
RXF 393 renal = system: RXF 393 renal
RXF-631 renal = system: RXF-631 renal
SF-268 CNS = system: SF-268 CNS
SF-295 CNS = system: SF-295 CNS
SF-539 CNS = system: SF-539 CNS
SK-MEL-2 melanoma = system: SK-MEL-2 melanoma
SK-MEL-28 melanoma = system: SK-MEL-28 melanoma
SK-MEL-5 melanoma = system: SK-MEL-5 melanoma
SK-OV-3 ovarian = system: SK-OV-3 ovarian
SN12C renal = system: SN12C renal
SNB-19 CNS = system: SNB-19 CNS
SNB-75 CNS = system: SNB-75 CNS
SNB-78 CNS = system: SNB-78 CNS
SR leukemia = system: SR leukemia
SW-620 colon = system: SW-620 colon
TK-10 renal = system: TK-10 renal
U251 CNS = system: U251 CNS
UACC-257 melanoma = system: UACC-257 melanoma
UACC-62 melanoma = system: UACC-62 melanoma
UO-31 renal = system: UO-31 renal
OVCAR-5 ovarian = system: OVCAR-5 ovarian
RPMI-8226 leukemia = system: RPMI-8226 leukemia
XF 498 CNS = system: XF 498 CNS

Measured: TGI

O=C1CCC(c2nc3ccccc3o2)C(=O)N1 (configuration not stated)
> 100 µM: 786-0 renal | A498 renal | A549 NSCLC | ACHN renal | CAKI-1 renal | CCRF-CEM leukemia | COLO 205 colon | DLD-1 colon | DMS 114 small cell lung | DMS 273 small cell lung | EKVX NSCLC | HCC-2998 colon | HCT-116 colon | HCT-15 colon | HL-60(TB) leukemia | HOP-18 NSCLC | HOP-62 NSCLC | HOP-92 NSCLC | HT29 colon | IGROV1 ovarian | K-562 leukemia | KM12 colon | KM20L2 colon | LOX IMVI melanoma | LXFL 529 NSCLC | M14 melanoma | M19-MEL melanoma | MALME-3M melanoma | MOLT-4 leukemia | NCI-H226 lung | NCI-H23 lung | NCI-H460 lung | NCI-H522 lung | OVCAR-3 ovarian | OVCAR-4 ovarian | OVCAR-8 ovarian | RXF 393 renal | RXF-631 renal | SF-268 CNS | SF-295 CNS | SF-539 CNS | SK-MEL-2 melanoma | SK-MEL-28 melanoma | SK-MEL-5 melanoma | SK-OV-3 ovarian | SN12C renal | SNB-19 CNS | SNB-75 CNS | SNB-78 CNS | SR leukemia | SW-620 colon | TK-10 renal | U251 CNS | UACC-257 melanoma | UACC-62 melanoma | UO-31 renal

CCc1cc(Cc2cc(CC)c(NC(=O)C3=CC(=O)CC(c4ccc(OC)cc4)O3)c(CC)c2Cl)c(Cl)c(CC)c1NC(=O)C1=CC(=O)CC(c2ccc(OC)cc2)O1 (configuration not stated)
37.3 µM: OVCAR-5 ovarian
34.8 µM: DLD-1 colon
63.2 µM: UACC-62 melanoma
32.4 µM: LOX IMVI melanoma
> 100 µM: EKVX NSCLC | K-562 leukemia | MOLT-4 leukemia | RXF-631 renal
68.1 µM: HL-60(TB) leukemia
34.7 µM: RXF 393 renal
41.4 µM: SK-MEL-28 melanoma
42.7 µM: SNB-19 CNS
26.9 µM: KM12 colon
90.2 µM: CCRF-CEM leukemia
30.4 µM: HCC-2998 colon
32.1 µM: ACHN renal
90.5 µM: OVCAR-8 ovarian
31.9 µM: LXFL 529 NSCLC
39.5 µM: SN12C renal
32.6 µM: NCI-H460 lung
58.2 µM: SF-268 CNS
65.8 µM: CAKI-1 renal
54.8 µM: OVCAR-4 ovarian
32.2 µM: SK-OV-3 ovarian
31.6 µM: COLO 205 colon | HCT-116 colon | M14 melanoma
37.2 µM: MALME-3M melanoma
51.7 µM: TK-10 renal
33.5 µM: DMS 114 small cell lung
46.2 µM: SNB-75 CNS
53.5 µM: HOP-18 NSCLC
39.7 µM: HOP-92 NSCLC
36.4 µM: HT29 colon | SK-MEL-5 melanoma
26.1 µM: U251 CNS
40.2 µM: M19-MEL melanoma
46.8 µM: RPMI-8226 leukemia
38.9 µM: SF-539 CNS
37.6 µM: DMS 273 small cell lung
46.5 µM: HOP-62 NSCLC
36.7 µM: SK-MEL-2 melanoma
45.5 µM: IGROV1 ovarian
38.2 µM: OVCAR-3 ovarian
36.8 µM: UACC-257 melanoma
34.3 µM: 786-0 renal
59.2 µM: SR leukemia
32 µM: NCI-H23 lung
20.9 µM: SW-620 colon
39.9 µM: A498 renal
43.8 µM: A549 NSCLC
85.1 µM: SNB-78 CNS
53.7 µM: HCT-15 colon
30.8 µM: UO-31 renal
63.4 µM: KM20L2 colon
38.7 µM: SF-295 CNS
47.5 µM: NCI-H226 lung

C/C(=N\NC(N)=S)c1ccc(/C(C)=N/NC(N)=S)cc1
> 100 µM: 786-0 renal | A498 renal | A549 NSCLC | ACHN renal | CCRF-CEM leukemia | COLO 205 colon | DLD-1 colon | DMS 114 small cell lung | EKVX NSCLC | HCC-2998 colon | HCT-116 colon | HCT-15 colon | HL-60(TB) leukemia | HOP-18 NSCLC | HOP-62 NSCLC | HOP-92 NSCLC | HT29 colon | IGROV1 ovarian | K-562 leukemia | KM12 colon | KM20L2 colon | LOX IMVI melanoma | LXFL 529 NSCLC | M14 melanoma | M19-MEL melanoma | MALME-3M melanoma | MOLT-4 leukemia | NCI-H226 lung | NCI-H23 lung | NCI-H460 lung | NCI-H522 lung | OVCAR-3 ovarian | OVCAR-5 ovarian | OVCAR-8 ovarian | RPMI-8226 leukemia | RXF 393 renal | RXF-631 renal | SF-268 CNS | SF-295 CNS | SF-539 CNS | SK-MEL-28 melanoma | SK-MEL-5 melanoma | SK-OV-3 ovarian | SN12C renal | SNB-19 CNS | SNB-75 CNS | SR leukemia | SW-620 colon | TK-10 renal | U251 CNS | UACC-257 melanoma | UACC-62 melanoma | UO-31 renal | XF 498 CNS
